Laboratory results from the supplement of paper PMC10307832.

Columns and labels:
Assay in all cases: relative viability (nuclei count vs DMSO), 5 days (fraction); higher = more cells survive
[1] = compound: C[C@]12O[C@H](C[C@]1(O)CO)n1c3ccccc3c3c4c(c5c6ccccc6n2c5c31)CNC4=O [Lestaurtinib] + CC(=O)c1c(C)c2cnc(Nc3ccc(N4CCNCC4)cn3)nc2n(C2CCCC2)c1=O [Palbociclib] (partner 0.5 µM)
Method in brief: (§1)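 Lung cancer cell lines in 1536-well plates were dosed by pin tool the day after seeding, either with one drug alone or with a fixed anchor-drug dose plus five library-drug doses (not always all listed) in √10 steps. After 5 days, cells were fixed and their nuclei stained in one step (final 0.05% Triton X-100, 1% formaldehyde, 1 ug/ml Hoechst), then counted on 4× images. Relative viability is the nuclei count in treated wells divided by that in vehicle wells. Values are medians of duplicate plates.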

[2] = compound: C1/C(=C\C2=CC=CS2)/C(=O)/C(=C/C3=CC=CS3)/C1 + COc1cccc2cc(-c3nc([C@H]4CC[C@H](C(=O)O)CC4)n4ncnc(N)c34)[nH]c12 [OSI-027] (partner 0.5 µM)
Method in brief: as §1

TPCA-1 + Phenformin = compound: C1=CC(=CC=C1C2=CC(=C(S2)NC(=O)N)C(=O)N)F [TPCA-1] + N=C(N)NC(=N)NCCc1ccccc1 [Phenformin] (partner 250 µM)
Method in brief: as §1

[3] = compound: C1/C(=C\C2=CC=CS2)/C(=O)/C(=C/C3=CC=CS3)/C1 + Cc1cc(Nc2cc(N3CCN(C)CC3)nc(Sc3ccc(NC(=O)C4CC4)cc3)n2)n[nH]1 [Tozasertib] (partner 0.1 µM)
Method in brief: as §1

UMC-11
relative viability ([1]; first compound 0.005 µM): 0.344
relative viability ([1]; first compound 0.01581 µM): 0.294
relative viability ([1]; first compound 0.05 µM): 0.33
relative viability ([1]; first compound 0.1581 µM): 0.215
relative viability ([1]; first compound 0.5 µM): 0.198
relative viability ([2]; first compound 0.2 µM): 0.474
relative viability ([2]; first compound 0.6325 µM): 0.484
relative viability ([2]; first compound 20 µM): 0.45
relative viability (TPCA-1 + Phenformin; first compound 0.04 µM): 0.373
relative viability (TPCA-1 + Phenformin; first compound 0.1265 µM): 0.299
relative viability (TPCA-1 + Phenformin; first compound 0.4 µM): 0.36
relative viability (TPCA-1 + Phenformin; first compound 1.265 µM): 0.307
relative viability (TPCA-1 + Phenformin; first compound 4 µM): 0.171
relative viability ([3]; first compound 0.2 µM): 0.204
relative viability ([3]; first compound 0.6325 µM): 0.192
relative viability ([3]; first compound 2 µM): 0.212
relative viability ([3]; first compound 6.325 µM): 0.202
relative viability ([3]; first compound 20 µM): 0.205
